Assay results published in patent US20190167660A1, “PPAR-gamma AGONIST FOR TREATMENT OF BONE DISORDERS” (InteKrin Therapeutics, Inc., priority 2016, published 2019).

What was measured:
[1] = tested on: HbA1c; settings: DePaoli et al., Diabetes Care 2014; cited from earlier work
[2] = tested on: adiponectin; experiment: randomized, double-blind, placebo-controlled, 24-week study in subjects with type 2 diabetes: adiponectin levels; format: in vivo, human; settings: for Mean Change in adiponectin from baseline (Week 0) to Week 24: LOCF, type 2 diabetes subjects
Method: A randomized, double-blind, placebo-controlled, 24-week study was conducted in which adiponectin levels were measured. […] 367 subjects with type 2 diabetes (TD2)—a disease in which patient adiponectin levels are reduced—were randomly assigned to receive either 0.5, 1, 2 or 3 milligrams (“mg”) of INT131 besylate, 45 mg of pioglitazone or placebo daily for 24 weeks. To measure adiponectin levels blood was drawn at Weeks 0, 2, 6, 12 and 24.
At baseline (Week 0) mean adiponectin levels were 1.94 micrograms per milliliter (“μg/mL”). The mean adiponectin levels at baseline and Week 24, and the mean change in adiponectin levels from baseline (Week 0) to Week 24 are disclosed in Table 1, below. The standard deviation for samples tested in each group is listed in (parenthesis). Mean baseline adiponectin values were similar for the treatment groups.

[3] = tested on: mesenchymal stem cells (MSCs); experiment: differentiation of mesenchymal stem cells into osteoblasts / adipocytes; format: cell-based; settings: no method described
[4] = DePaoli et al., Diabetes Care 2014; cited from earlier work
[5] = tested on: adiponectin; experiment: 14-day study in healthy subjects: serum adiponectin levels; format: in vivo, human
Method: (§1) A study was conducted to determine the effect of INT131 on serum adiponectin levels. Thirty healthy subjects were randomly selected to receive either placebo, 0.1 mg INT131, 1 mg INT131 or 4 mg INT131 daily for 14 days. To measure adiponectin levels blood was drawn at Days 1, 4, 8 and 14.

[6] = tested on: HbA1c; experiment: 24-week study in subjects with type 2 diabetes: HbA1c levels; format: in vivo, human; settings: 2 and 3 mg doses of INT131, daily for 24 weeks
[7] = tested on: diet-induced obese mice; settings: 10 mg/kg of INT131, Lee et al. 2012; cited from earlier work
[8] = tested on: adiponectin; experiment: Example 3 (INT131 activates bone remodeling): 14-day study in healthy subjects; format: in vivo, human; settings: 0.1 mg INT131 daily for 14 days
Method: as §1

[9] = 0.1 mg INT131 daily for 14 days

| Compound | efficacy in reducing HbA1c levels compared with 45 mg of pioglitazone [1] | Mean Change in adiponectin from baseline (Week 0) to Week 24 ([2]; 0.5 mg INT131 besylate daily) [µg/mL] | Mean Change in adiponectin from baseline (Week 0) to Week 24 ([2]; 1 mg INT131 besylate daily) [µg/mL] | treatment comparison with placebo, adiponectin levels ([2]; 1 mg, 2 mg and 3 mg doses of INT131, p≤0.0109) | Mean Change in adiponectin from baseline (Week 0) to Week 24 ([2]; 2 mg INT131 besylate daily) [µg/mL] | Mean Change in adiponectin from baseline (Week 0) to Week 24 ([2]; 3 mg INT131 besylate daily) [µg/mL] | differentiation of mesenchymal stem cells (MSCs) into osteoblasts [3] | increase of adipocytes [3] | edema, weight gain and hemodilution compared with subjects taking pioglitazone [4] | change in adiponectin levels over placebo [5, 9] | change in serum adiponectin levels from Day 1 to Day 14 [5, 9] | change in serum adiponectin levels over placebo ([5]; 1 mg or 4 mg INT131 daily for 14 days) | reduction of HbA1c levels compared with 45 mg of pioglitazone [6] | effect on bone mass [7] | change from Day 1 to Day 14 (sentence breaks off) [8] | Mean Change in adiponectin from baseline (Week 0) to Week 24 ([2]; 45 mg pioglitazone daily) [µg/mL] |
| --- | --- | --- | --- | --- | --- | --- | --- | --- | --- | --- | --- | --- | --- | --- | --- | --- |
| O=S(=O)(Nc1cc(Cl)c(Oc2cnc3ccccc3c2)c(Cl)c1)c1ccc(Cl)cc1Cl [INT131] | equally efficacious | 0.56 | 1.28 | statistically significant | 3.27 | 3.83 | promotes | does not result in an increase | less | no significant change | no significant change | significant change | at least as well | does not affect bone mass | no significant |  |
| CCc1ccc(CCOc2ccc(CC3SC(=O)NC3=O)cc2)nc1 (stereo not shown) [pioglitazone, reference compound] |  |  |  |  |  |  |  |  |  |  |  |  |  |  |  | 2.96 |
